In patent publication US20150141411A1, “SUBSTITUTED 3,4-DIHYDRO-2H-PYRIDO[1,2-A]PYRAZINE-1,6-DIONE DERIVATIVES USEFUL FOR THE TREATMENT OF (INTER ALIA) ALZHEIMER'S DISEASE” (Janssen Pharmaceuticals, Inc., priority 2012, published 2015):
Where a name gives a salt, the structure may show the parent alone.

Experiments:
γ-secretase [1] = target: T1, γ-secretase (Homo sapiens, UniProt P49768); experiment: Screening for γ-secretase-modulating activity: Aβ42 in supernatant of SKNBE2 cells carrying hAPP 695 wild type (Alphalisa); type: cell-based; conditions: SKNBE2 human neuroblastoma cells carrying hAPP 695 wild type, overnight incubation, Aβ42 in cell supernatant
T1 construct: endogenous in cells; host or cells: SKNBE2 human neuroblastoma cells (carrying hAPP 695 wild type as substrate)
Outline: (§1)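 SKNBE2 neuroblastoma cells expressing wild-type hAPP 695 plated at 10^4 cells/well in Ultraculture with test compound, incubated overnight at 37° C. Aβ42 (C-terminal/N-terminal antibody pair) and Aβtotal (N-terminal/4G8 pair) in supernatant quantified by AlphaLISA. IC50 from 4-parameter fit of percent of compound-free control.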

γ-secretase [2] = target: T1, γ-secretase; experiment: Screening for γ-secretase-modulating activity: Aβtotal in supernatant of SKNBE2 cells carrying hAPP 695 wild type (Alphalisa); type: cell-based; conditions: SKNBE2 human neuroblastoma cells carrying hAPP 695 wild type, overnight incubation, Aβtotal in cell supernatant
Outline: as §1

| Structure (SMILES) | melting point [°C] | IC50 (γ-secretase [1]) [µM] | IC50 (γ-secretase [2]) [µM] |
| --- | --- | --- | --- |
| Cc1cn(-c2ccc3n(c2=O)C[C@@H](C)N(C(C)c2cc(CC4CC4)cc(C(F)(F)F)c2)C3=O)cn1 (single isomer, unassigned) (as salt: HCl) [compound 135] | 213.2 |  |  |
| CCC(c1cc(OC)cc(C(F)(F)F)c1)N1C(=O)c2ccc(-n3cnc(C)c3)c(=O)n2C[C@H]1C (single isomer, unassigned) (as salt: HCl) [compound 141] | 146.2 |  |  |
| CCC(c1cc(OC)cc(C(F)(F)F)c1)N1C(=O)c2ccc(-n3cnc(C)c3)c(=O)n2C[C@H]1C (single isomer, unassigned) (as salt: HCl) [compound 142] | 141.4 |  |  |
| CCOc1cc(C(C)N2C(=O)c3ccc(-n4cnc(C)c4)c(=O)n3C[C@H]2C)cc(C(F)(F)F)c1 (single isomer, unassigned) (as salt: HCl) [compound 143] | 229.3 |  |  |
| CCOc1cc(C(C)N2C(=O)c3ccc(-n4cnc(C)c4)c(=O)n3C[C@H]2C)cc(C(F)(F)F)c1 (single isomer, unassigned) (as salt: HCl) [compound 144] | 194.4 |  |  |
| Cc1cn(-c2ccc3n(c2=O)C[C@@H](C)N(C(C)c2cccc(OC(F)(F)F)c2)C3=O)cn1 (single isomer, unassigned) (as salt: HCl) [compound 147] | 232.9 |  |  |
| COc1cc(C(C)N2C(=O)c3ccc(-n4cnc(C)c4)c(=O)n3C[C@H]2C)cc(C(F)(F)F)c1 (single isomer, unassigned) (as salt: HCl) [compound 149] | 122 |  |  |
| Cc1cn(-c2ccc3n(c2=O)CCN(C(C)c2ccc(Cl)c(Cl)c2)C3=O)cn1 (single isomer, unassigned) [9a] | 206.8 | 4.47 | > 10 |
| Cc1cn(-c2ccc3n(c2=O)CCN(C(C)c2cccc(Cl)c2Cl)C3=O)cn1 (single isomer, unassigned) [10b] | 206.4 | 6.61 | > 10 |
| Cc1cn(-c2ccc3n(c2=O)CCN(C(C)c2cccc(C(F)(F)F)c2)C3=O)cn1 (single isomer, unassigned) [11a] | 181.1 | 0.66 | > 10 |
| Cc1cn(-c2ccc3n(c2=O)CCN(C(C)c2cccc(C(F)(F)F)c2)C3=O)cn1 (single isomer, unassigned) [11b] | 181 | 7.76 | > 10 |
| Cc1cn(-c2ccc3n(c2=O)CCN(C(C)c2cn(C)c4cc(F)c(Cl)cc24)C3=O)cn1 (single isomer, unassigned) [compound 186] | 261 | 0.78 | > 10 |
| Cc1cn(-c2ccc3n(c2=O)CC(C)N(C(C)c2cn(C)c4cc(F)c(Cl)cc24)C3=O)cn1 (single isomer, unassigned) [compound 190] | 255 | 0.01 | 3.31 |
| Cc1cn(-c2ccc3n(c2=O)CCN(C(C)c2cc(Cl)cc(Cl)c2)C3=O)cn1 (single isomer, unassigned) [compound 208] | 206 | 3.89 | > 10 |
| Cc1cn(-c2ccc3n(c2=O)C[C@@H](C)N(C(C)c2cc(Cl)cc(Cl)c2)C3=O)cn1 (single isomer, unassigned) [compound 211] | 146 | 0.09 | > 10 |
| CCn1cc(C(C)N2C(=O)c3ccc(-n4cnc(C)c4)c(=O)n3CC2C)c2cc(Cl)cc(F)c21 (single isomer, unassigned) [compound 221] | 194 | 0.005 | 0.79 |
| Cc1cn(-c2ccc3n(c2=O)CC(C)N(C(C)c2cn(C)c4c(F)cc(Cl)cc24)C3=O)cn1 (single isomer, unassigned) [compound 223] | 243 | 0.22 | 6.61 |
| Cc1cn(-c2ccc3n(c2=O)CCN(CCC2CCCCC2)C3=O)cn1 [compound 18] | 192.6 | 1.7 | > 10 |

| Structure (SMILES) | melting point [°C] | IC50 (γ-secretase [1]) [µM] | IC50 (γ-secretase [2]) [µM] |
| --- | --- | --- | --- |
| Cc1cn(-c2ccc3n(c2=O)C[C@@H](C)N(CC2(c4ccccc4C)CC2)C3=O)cn1 [compound 20] | 199.8 | 1.55 | > 10 |
| Cc1cn(-c2ccc3n(c2=O)C[C@@H](C)N(Cc2ccccc2C)C3=O)cn1 [compound 21] | 163 | 1.95 | > 10 |
| Cc1cn(-c2ccc3n(c2=O)CCN(Cc2cccc(Cl)c2)C3=O)cn1 [compound 25] | 176.7 | 1.7 | > 10 |
| Cc1cn(-c2ccc3n(c2=O)CCN(CCc2ccc(Cl)cc2)C3=O)cn1 [compound 26] | 184.4 | 1.66 | > 10 |
| Cc1cn(-c2ccc3n(c2=O)CCN(CCOCc2ccc(Cl)cc2)C3=O)cn1 [compound 27] | 168 | 0.59 | > 10 |
| Cc1cn(-c2ccc3n(c2=O)C[C@@H](C)N(CC2(c4ccc(Cl)cc4)CC2)C3=O)cn1 [compound 28] | 157.4 | 0.28 | > 10 |
| Cc1cn(-c2ccc3n(c2=O)CCN(CC2(c4ccc(Cl)cc4)CC2)C3=O)cn1 [compound 29] | 227.1 | 0.27 | > 10 |
| Cc1cn(-c2ccc3n(c2=O)CCN(C2CC2c2ccc(Cl)cc2)C3=O)cn1 (stereo not drawn) [compound 30] | 168.5 | 2.04 | > 10 |
| Cc1cn(-c2ccc3n(c2=O)C[C@@H](C)N(Cc2cccc(Cl)c2F)C3=O)cn1 [compound 35] | 182.2 | 1.02 | > 10 |
| Cc1cn(-c2ccc3n(c2=O)CCN(Cc2cccc(Cl)c2Cl)C3=O)cn1 [compound 36] | 224.9 | 0.51 | > 10 |
| Cc1cn(-c2ccc3n(c2=O)CCN(Cc2ccc(Cl)c(Cl)c2)C3=O)cn1 [compound 38] | 190.8 | 0.33 | 3.63 |
| Cc1cn(-c2ccc3n(c2=O)C[C@@H](C)N(Cc2cccc(Cl)c2C)C3=O)cn1 [compound 40] | 182.1 | 0.51 | > 10 |
| Cc1cn(-c2ccc3n(c2=O)CCN(Cc2cccc(C(F)(F)F)c2)C3=O)cn1 [compound 42] | 183.4 | 0.74 | > 10 |
| Cc1cn(-c2ccc3n(c2=O)C[C@@H](C)N(Cc2ccc(C(F)(F)F)cc2)C3=O)cn1 [compound 43] | 164.9 | 0.62 | > 10 |
| Cc1cn(-c2ccc3n(c2=O)CCN(Cc2cc(C(F)(F)F)cc(C(F)(F)F)c2)C3=O)cn1 [compound 53] | 219 | 0.21 | > 10 |
| Cc1cn(-c2ccc3n(c2=O)CCN(c2cccc(C(F)(F)F)c2F)C3=O)cn1 [compound 55] | 227.5 | 3.8 | > 10 |
| Cc1cn(-c2ccc3n(c2=O)CCN(Cc2cccc(C(F)(F)F)c2F)C3=O)cn1 [compound 56] | 197.6 | 1.7 | > 10 |
| Cc1cn(-c2ccc3n(c2=O)CCN(Cc2c[nH]c4c(Cl)cc(Cl)cc24)C3=O)cn1 [compound 260] | 208 | 0.03 |  |
